Data set [1] concerns NO production in LPS-activated RAW 264.7 macrophages. Put plainly: LPS-induced NO production in RAW 264.7 macrophages (Griess reaction). The class given is cell-based, murine. The following applies: Mus musculus, RAW264.7. How it is done: RAW 264.7 cells were treated with compound for 1 hour, and then incubated for 24 hours with or without LPS. Nitrite levels in cell culture medium were determined using the Griess reaction (Chiang et al. Br J Pharmacol 2005; 146:352-63; Schmidt et al. Determination of nitrite and nitrate by the Griess reaction. In: Feelisch M, Stamler J S, editors. Methods In Nitric Oxide Research. New York: John Wiley & Sons Inc.; 1996. p. 491-'7). Cell viability was examined using the MTT based assay (Scudiero et al. Cancer Res 1988; 48:4827-33).
RAW 264.7 macrophage cells were treated with or without various concentrations of CREa8 extract for 1 hour, then LPS (1 μg/ml) was added and incubated for 24 hours. […] NO in the culture medium was measured. Percentage of cell viability was also determined using MTT assay. The data represent 3 experiments and are expressed as mean±SD. […]
The inhibition of LPS-induced NO production by C. rabens extracts or purified dLGG was investigated in murine RAW 264.7 macrophages by determination of nitrite level (equivalent to NO level) in culture medium 24 hours after treatment. […] NO in the culture medium was measured using the Griess reagent. Survival of macrophages after treatment was measured using MTT assay and calculated by the following formula: viable cell number (%)=OD570 (treated cell culture)/0D570 (vehicle control)×100. […]
(In general: Griess reagent forms a coloured azo dye with nitrite.)

For data set [2], the system named is NF-κB (p65). Kind of data set: NF-κB p65 nuclear translocation in LPS-stimulated RAW 264.7 cells (immunoblotting, confocal microscopy). Type of data set: cell-based, murine. How it is done:
(§1) Total cellular proteins and the specific cytosolic and nuclear proteins were prepared using methods described in Chiang et al. Protein content was measured by the Bradford method (Bio-Rad). Protein was resolved by 5-20% gradient SDS-PAGE and subjected to immunoblotting using enhanced chemiluminescence reagents (ECL, Amersham). Monoclonal antibodies against PARP (Transduction Laboratories, Lexington, Ky.), GA3PDH (Biogenesis, Poole, UK), α-tubulin (Oncogene Science, Cambridge, UK), COX-2 (Cayman Chemical), phospho-(Ser32)-IκBα, phospho-IKKα(Ser180)/IKKβ(Ser181) (New England Biolabs, Beverly, Mass.), iNOS, IκBα, IKKα/β or NF-κB p65 (RelA) (Santa Cruz Biotechnology, Santa Cruz, Calif.) were used.
RAW 264.7 cells were seeded in chamber slides for 1 hour, and then treated with DMSO or dLGG (75 μg/mL) for 1 hour, with or without LPS stimulation for an additional 90 minutes. The cells were fixed, permeabilized with 0.1% Triton X-100, and stained with Hoechst 33342 (DNA marker), FITC-labeled anti-α-tubulin Ab (cytoplasm marker), or rabbit anti-p65 antibody visualized with goat anti-rabbit Rhodamine Red-labeled secondary antibody for analysis with a Zeiss LSM 510 META confocal laser-scanning microscope.
The distribution of NF-κB (p65) in nucleus and cytoplasm was determined using immunoblotting. Cells were treated with various concentrations of dLGG for 1 hour and then stimulated with LPS (1 μg/mL) for another 90 min. Nuclear and cytosolic fractions were immunoblotted with p65 NF-κB antibody. A slight increase in nuclear p65 protein (1.5-fold) was detected when macrophages were treated with a low concentration of dLGG (5 μg/mL), compared to LPS alone (1.0). With higher concentrations of dLGG (25 to 75 μg/mL), the level of nuclear p65 decreased accordingly. Cytoplasmic levels of NF-κB (p65) were not affected by dLGG treatment of LPS-stimulated macrophages.
The effect of dLGG on NF-κB (p65) nuclear translocation was also examined by confocal microscopy. Macrophages were treated with 0.4% DMSO, or LPS (1 μg/mL) with or without dLGG (75 μg/mL), and stained with fluorescence-labeled antibodies against p65 (red). To distinguish nucleus from cytosol, cells were also stained with DNA-specific Hoechst 33342 (blue) and with anti-α-tubulin antibody (green). In vehicle-treated cells, p65 protein was mainly found in the cytosol of test cells.
In general terms: Immunoblotting shows a protein as a band on a membrane.

Data set [3] relates to iNOS protein. Put plainly: iNOS protein expression (immunoblotting) in LPS-stimulated RAW264.7 cells. Type of data set: cell-based, murine. The following applies: LPS 1 μg/mL 18 h. The method, then: as §1
RAW264.7 cells were treated with the indicated concentrations of dLGG for 1 hour then LPS (1 μg/mL) was added for 18 hours. Total cellular protein (20 μg) was then subjected to immunoblotting. Quantification of iNOS mRNA and protein expression involved normalization to GA3PDH (internal control) by densitometry. […] Thus, the dLGG-induced inhibition of NO production in LPS-stimulated macrophages is also mediated through suppression of both transcription and translation of iNOS.

For data set [4], the system named is B16 melanoma. Kind of data set: In vivo inhibition of B16 melanoma growth in C57BL/6J mice. To be noted: mouse, in vivo, ip. The method, then: The chemopreventive effect of the CREa8 subfraction was evaluated on tumor growth using the B16 melanoma C57BL/6J mouse system. Six-week-old animals (4 groups of mice, 5 in each group) were used in this experiment. Group 1 mice (Sham control) were intraperitoneally (i.p.) injected with 20 μL of DMSO every 2 days throughout the experimental period, except 100 μL PBS was injected on day 0. Group 4 mice (Tumor control) were pre-treated with DMSO every 2 days, starting from day—14, for 2 weeks, inoculated with B16 tumor cells (1×10^6 cells/100 μL PBS) subcutaneously (s.c.) on the abdominal area on day 0, and then injected with DMSO every 2 days until day 21. Group 2 mice were i.p. pre-treated with CREa8 (10 mg/kg body weight per dose) every 2 days, starting from day—14, for 2 weeks, s.c. inoculated with B16 tumor cells on day 0, and then continuously treated with CREa8 (i.p.) every 2 days until day 21. Group 3 mice were similarly pre-treated with DMSO every 2 days for 2 weeks, inoculated with B16 tumor cells on day 0, and then treated with cisplatin (i.p.) every 2 days until day 21. The test mice were monitored daily, and body weights and tumor size (average of 2 dimensions) recorded every 2 days. At the end of the experiment (day 21), tumors were excised and weighed.
The cancer prevention efficacy of the dLGG-rich fraction (CREa8) was examined in vivo in 4 groups of mice according to the method described above. Cisplatin, a cancer chemotherapeutic, was used as a reference control.

Where two headings read alike, the source gives them in different places.

The source of these data is patent publication US8048455B2, “Treatment of cancer and inflammatory disorder” (Academia Sinica, priority 2006, dated 2011).

Regarding `CC/C=C\C/C=C\C/C=C\CCCCCCCC(=O)OC[C@H](CO[C@@H]1O[C@H](CO)[C@H](O)[C@H](O)[C@H]1O)OC(=O)CCCCCCC/C=C\C/C=C\C/C=C\CC` [dLGG, 1,2-di-O-α-linolenoyl-3-O-β-galactopyranosyl-sn-glycerol], the IC50 is about 14.7 µM in data set [1] (RAW 264.7, LPS 1 μg/mL 24 h, read-out: 50% inhibitory concentration for LPS-induced NO production) and about 11.4 µg/mL in data set [1] (RAW 264.7, compound 1 h then LPS 1 μg/mL 24 h, read-out: IC50 for inhibiting LPS-induced NO production). In addition, in data set [2] (5 μg/mL, LPS 90 min), the “Nuclear p65 protein compared to LPS alone (1.0)” value worked out at 1.5 fold. In addition, the “p65 nuclear translocation by confocal microscopy” value in data set [2] (75 μg/mL, LPS 1 μg/mL) was “drastically inhibited”. Further, the “Level of nuclear p65” value in data set [2] (25 to 75 μg/mL, LPS 90 min) is recorded as “decreased”. Besides, the “Cytoplasmic levels of NF-κB (p65)” value in data set [2] (LPS-stimulated macrophages) was “not affected”. For the same molecule, the iNOS protein level entry in data set [3] is on record as “Little iNOS protein was detected”. For the same molecule, the “Mortality or body weight loss on i.p. administration” value in data set [4] is on record as “without mortality or body weight loss”.
